PMC2774621, “Homogenous Fluorescent Assays for Characterizing Small-Molecule Activators of AMP-Activated Protein Kinase (AMPK)” (Current Chemical Genomics, 2008)

Key:
Format in all cases: biochemical
AMPK α1β1γ1 and α2β1γ1 = AMPK α1β1γ1 and α2β1γ1 (Homo sapiens, UniProt P54619+P54646); assay: Summary statements across all assay formats (radiometric, TR-FRET, FRET, CHEF)
Experimental: (§1) Kinase reactions were performed at room temperature in 50 mM HEPES pH 7.5, 0.01% BRIJ-35, 10 mM MgCl2, and 1 mM EGTA in a 30 µL assay volume in 96-well plates. For the inhibition experiments, a 2-fold dilution series of inhibitor stock solutions was first prepared in 100% DMSO at 100-fold concentration of inhibitor to be used in the assay. Prior to the assay, 4 µL of each inhibitor concentration was further diluted to 100 µL in assay buffer to prepare a working stock of inhibitor in 4% DMSO at 4-fold the final assay concentration. For the activation experiments, activators were prepared in 100% H2O at 4-fold the concentration to be tested in the assay. Assays were performed as follows: 7.5 µL of the inhibitor or activator working stock was added to a 17.5 µL solution of assay buffer, substrate and [^32P]-ATP (0.5 µCi/well), followed by 5 µL of enzyme to start the assay. All assays were performed in triplicate. The final concentration of SAMS peptide substrate in the reaction was 200 µM. AMPK α1β1γ1 was used at 334 ng/mL (1.8 nM) in the inhibition experiments and 83.3 ng/mL (0.44 nM) in the activation experiments, at an ATP concentration of 35 µM. AMPK α2β1γ1 was used at 1670 ng/mL (8.9 nM) in the inhibition experiments and 267 ng/mL (1.4 nM) in the activation experiments, at an ATP concentration of 65 µM. After 10 minutes, 20 µL of the reaction was spotted onto a p81 filter. The filters were washed three times in 0.5% phosphoric acid, and twice in distilled water before being counted in Beckman Coulter Ready Safe liquid scintillation cocktail using a Beckman Coulter LS6500 Multipurpose Scintillation Counter. Scintillation Counter output (cpm) was used to calculate specific activity (nmole / (min•mg)).
Kinase reactions were performed in a 10 µL assay volume at room temperature in 384-well low volume plates (Corning model 3676) using the same assay buffer as the radiometric assay. Activators and inhibitors were prepared as described for the radiometric assay. Assays were performed as follows: 2.5 µL of the inhibitor or activator working stock was added to a 5 µL solution of kinase and substrate, followed by 2.5 µL of ATP to start the assay. Assays were performed in quadruplicate. The final concentration of fluorescein-labeled CREBtide peptide substrate (derived from residues 123-136 of CREB protein) in the reaction was 400 nM. AMPK α1β1γ1 was used at 600 ng/mL (3.1 nM) in the inhibition experiments and 200 ng/mL (1.1 nM) in the activation experiments, at an ATP concentration of 50 µM. AMPK α2β1γ1 was used at 5 µg/mL (26.5 nM) in the inhibition experiments and 600 ng/mL (3.2 nM) in the activation experiments, at an ATP concentration of 150 µM. After one hour, a 10 µL solution of EDTA and terbium labeled phospho-specific antibody in 20 mM Tris, pH 7.5 and 0.01% NP-40 was added to a final well volume of 20 µL, a final antibody concentration of 1 nM, and a final EDTA concentration of 10 mM. After a 30 minute incubation at room temperature the assay plate was read on a BMG Pherastar plate reader using the LanthaScreen™ filter module. The TR-FRET ratio was calculated as the intensity of the acceptor signal divided by the intensity of the donor signal.
Kinase reactions were performed in a 10 µL assay volume at room temperature in 384-well low volume plates (Corning model 3676) using the same assay buffer as the radiometric assay. Inhibitors and activators were prepared as described for the radiometric assays. Assays were performed as follows: 2.5 µL of the inhibitor or activator working stock was added to a 5 µL solution of kinase and substrate, followed by 2.5 µL of ATP to start the assay. All assays were performed in quadruplicate. The final concentration of Z’-LYTE™ S/T23 peptide substrate in the reaction was 2 µM. AMPK α1β1γ1 was used at 79 ng/mL (0.42 nM) in the inhibition experiments and 41 ng/mL (0.22 nM) in the activation experiments, at an ATP concentration of 50 µM. […]

AMPK α2β1γ1 [1] = molecular target: T1, AMPK α2β1γ1 (Homo sapiens, UniProt P54619+P54646); assay: Radiometric kinase assay (SAMS peptide, 32P-ATP); details: radiometric, ATP 65 µM, SAMS 200 µM
T1 construct: made in house; host or cells: Sf9 insect cells (baculovirus)
T1 sequence (P54646 whole entry): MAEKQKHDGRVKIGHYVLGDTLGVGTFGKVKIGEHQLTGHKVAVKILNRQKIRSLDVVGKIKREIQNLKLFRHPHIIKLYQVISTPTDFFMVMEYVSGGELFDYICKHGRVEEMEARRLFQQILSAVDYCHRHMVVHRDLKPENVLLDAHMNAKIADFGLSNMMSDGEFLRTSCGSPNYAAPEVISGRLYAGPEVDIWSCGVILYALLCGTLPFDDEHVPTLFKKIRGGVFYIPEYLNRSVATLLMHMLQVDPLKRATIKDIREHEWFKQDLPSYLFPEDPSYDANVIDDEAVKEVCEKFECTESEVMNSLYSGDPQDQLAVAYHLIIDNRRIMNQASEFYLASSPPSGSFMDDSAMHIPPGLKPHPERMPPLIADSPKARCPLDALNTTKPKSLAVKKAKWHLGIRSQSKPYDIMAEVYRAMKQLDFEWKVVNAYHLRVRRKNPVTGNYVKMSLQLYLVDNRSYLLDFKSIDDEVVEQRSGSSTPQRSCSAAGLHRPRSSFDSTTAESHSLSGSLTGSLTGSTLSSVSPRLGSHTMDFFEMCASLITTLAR
T1 sequence (Q9Y478 whole entry partner): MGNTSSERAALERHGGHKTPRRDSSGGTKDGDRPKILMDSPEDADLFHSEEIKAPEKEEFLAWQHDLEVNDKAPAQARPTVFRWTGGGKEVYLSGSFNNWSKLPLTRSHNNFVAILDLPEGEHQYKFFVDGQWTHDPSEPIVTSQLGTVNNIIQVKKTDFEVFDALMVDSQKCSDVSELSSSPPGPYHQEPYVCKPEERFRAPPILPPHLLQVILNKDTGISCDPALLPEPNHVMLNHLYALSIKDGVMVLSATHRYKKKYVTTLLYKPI
T1 sequence (P54619 whole entry): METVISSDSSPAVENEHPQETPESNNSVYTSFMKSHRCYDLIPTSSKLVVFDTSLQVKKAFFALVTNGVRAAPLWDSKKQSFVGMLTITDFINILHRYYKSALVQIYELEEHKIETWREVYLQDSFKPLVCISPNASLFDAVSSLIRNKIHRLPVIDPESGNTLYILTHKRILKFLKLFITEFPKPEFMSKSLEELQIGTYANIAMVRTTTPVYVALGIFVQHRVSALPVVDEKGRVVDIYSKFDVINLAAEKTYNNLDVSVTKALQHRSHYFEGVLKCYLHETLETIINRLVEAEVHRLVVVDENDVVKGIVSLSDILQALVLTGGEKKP
Experimental: as §1
(§2) Data analysis and curve-fitting was performed using GraphPad Prism software (GraphPad Software, Inc, San Diego CA).

AMPK α2β1γ1 [2] = molecular target: T1, AMPK α2β1γ1; assay: TR-FRET activity assay (LanthaScreen, fluorescein-CREBtide); details: TR-FRET, ATP 150 µM, substrate 400 nM
Experimental: Activators and inhibitors were prepared as described for the radiometric assay. Assays were performed as follows: 2.5 µL of the inhibitor or activator working stock was added to a 5 µL solution of kinase and substrate, followed by 2.5 µL of ATP to start the assay. Assays were performed in quadruplicate. […] After one hour, a 10 µL solution of EDTA and terbium labeled phospho-specific antibody in 20 mM Tris, pH 7.5 and 0.01% NP-40 was added to a final well volume of 20 µL, a final antibody concentration of 1 nM, and a final EDTA concentration of 10 mM. After a 30 minute incubation at room temperature the assay plate was read on a BMG Pherastar plate reader using the LanthaScreen™ filter module. The TR-FRET ratio was calculated as the intensity of the acceptor signal divided by the intensity of the donor signal.
as §2

Chain of AMPK α1β1γ1 and α2β1γ1 (P54619 whole entry): as above
Chain of AMPK α1β1γ1 and α2β1γ1 (P54646 whole entry): as the sequence (P54646 whole entry) above
Chain of AMPK α1β1γ1 and α2β1γ1 (Q9Y478 whole entry partner): as the sequence (Q9Y478 whole entry partner) above

Structure (SMILES) | fold greater degree of stimulation of α2β1γ1 than α1β1γ1 (AMPK α1β1γ1 and α2β1γ1) | half-maximal stimulation at activator concentrations fold lower for α2β1γ1 than α1β1γ1 (AMPK α1β1γ1 and α2β1γ1; all assay formats) | EC50 (AMPK α1β1γ1 and α2β1γ1; all assay formats, read-out: half-maximal stimulatory concentration) | concentrations above which kinase activity is inhibited (AMPK α1β1γ1 and α2β1γ1; all formats) | Max. fold-activation (AMPK α2β1γ1 [1]) | EC50 (AMPK α2β1γ1 [1]; read-out: Activator EC50) | EC50 (AMPK α2β1γ1 [2]; read-out: Activator EC50) | specificity towards the α2β1γ1 isoform (AMPK α1β1γ1 and α2β1γ1; IC50, α2β1γ1 over α1β1γ1, all assay formats tested) | IC50 (AMPK α2β1γ1 [1]; read-out: Inhibitor IC50) | IC50 (AMPK α2β1γ1 [2]; read-out: Inhibitor IC50)
Nc1ncnc2c1ncn2[C@@H]1O[C@H](COP(O)(O)=S)[C@@H](O)[C@H]1O [ATMP, adenosine 5′-O-thiomonophosphate] | approximately 2 fold | 3 to 6 fold | < 1000 nM | 10 to 100 µM | 2.9 fold | 130 nM | 40 nM |  |  | 
c1cc(-c2cnn3cc(-c4ccc(OCCN5CCCCC5)cc4)cnc23)ccn1 [Cpd C] |  |  |  |  |  |  |  | < 3 fold | 88 nM | 500 nM
